How the values were obtained:
[1] = biological target: T1, Cysteineless Mouse MDR3 P-glycoprotein (Mus musculus, UniProt P21447, C1070A/C1121A/C1223A/C133A/C427A/C638A/C669A/C713A/C952A); assay: ATP hydrolysis by purified P-glycoprotein, basal and verapamil-stimulated; assay type: biochemical
T1 construct: made in house; host or cells: Pichia pastoris
Summary of the method: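 Cysteine-less mouse MDR3 P-gp (all Cys→Ala), expressed in Pichia pastoris and stabilised with phosphatidyl choline, was pre-incubated with compounds at 37 °C. ATP hydrolysis (2 mM ATP final, 20 min) measured via pyruvate kinase/lactate dehydrogenase-coupled NADH oxidation, with and without verapamil stimulation.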

[2] = biological target: T1, Cysteineless Mouse MDR3 P-glycoprotein; conditions: cited from earlier work
[3] = system: DU145TXR; assay: Intrinsic toxicity, MTT survival; assay type: cell-based, human; conditions: Homo sapiens; intrinsic toxicity, 48 hours, MTT; ± standard error
Experimental: Percent survival determined by MTT assay calculated relative to cells treated with equal volume DMSO vehicle and represent the mean±SEM from 2-4 separate studies, each study performed in triplicate wells.
The intrinsic in vitro toxicities of identified compounds were evaluated to determine their potential therapeutic window. This was assessed in a noncancerous cell line (HFL1) and the human prostate cancer cell lines DU145 and the MDR sub-line DU145TxR.

[4] = system: A2780; assay: Hyper-sensitization of ovarian cancer cells to doxorubicin; assay type: cell-based; conditions: not chemotherapy resistant A2780
From the text: Hyper-sensitization of cancers to chemotherapeutics. […] The sensitivity of normal, not chemotherapy resistant A2780 ovarian cancer cell lines to doxorubicin was increased by several orders of magnitude in these assays.

[5] = biological target: T1, Cysteineless Mouse MDR3 P-glycoprotein; assay: SL-ATP binding to P-gp by ESR spectroscopy; conditions: 50 microM inhibitor compound
Summary of the method: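 Cysteine-free mouse P-gp (30–50 microM) incubated with 50 microM inhibitor, then titrated with spin-labelled ATP analogue SL-ATP. Bound SL-ATP calculated from high-field ESR signal of free SL-ATP versus no-protein control, giving binding stoichiometry and affinity; at least 3 studies on 3–5 P-gp preparations.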

[6] = system: DU145-TxR; assay: Re-sensitization to Paclitaxel or Doxorubicin at 25 μM compound (MTT); assay type: cell-based, human; conditions: 48 hours
Experimental: FIGS. 3A-3B are plots that show an example of the re-sensitization of a multidrug resistant prostate cancer cell line to two different chemotherapeutics using the prostate cancer derived cell line, DU145 and the multidrug-resistant variant, DU145-TxR. […] Cell viability was measured by the MTT (3-(4,5-dimethylthiazol-2-yl)-2,5-diphenyl tetrazolium bromide assay conducted as described previously. After 48 hours of treatment with Paclitaxel or Doxorubicin alone or in the presence of 25 μM compound 29, 34, or 45 media was removed and cells were washed twice with phosphate buffered saline (PBS) and MTT assay was conducted 24 hours later. Data expressed as mean±SEM.

T1 sequence (P21447 whole entry C133A/C427A/C638A/C669A/C713A/C952A/C1070A/C1121A/C1223A): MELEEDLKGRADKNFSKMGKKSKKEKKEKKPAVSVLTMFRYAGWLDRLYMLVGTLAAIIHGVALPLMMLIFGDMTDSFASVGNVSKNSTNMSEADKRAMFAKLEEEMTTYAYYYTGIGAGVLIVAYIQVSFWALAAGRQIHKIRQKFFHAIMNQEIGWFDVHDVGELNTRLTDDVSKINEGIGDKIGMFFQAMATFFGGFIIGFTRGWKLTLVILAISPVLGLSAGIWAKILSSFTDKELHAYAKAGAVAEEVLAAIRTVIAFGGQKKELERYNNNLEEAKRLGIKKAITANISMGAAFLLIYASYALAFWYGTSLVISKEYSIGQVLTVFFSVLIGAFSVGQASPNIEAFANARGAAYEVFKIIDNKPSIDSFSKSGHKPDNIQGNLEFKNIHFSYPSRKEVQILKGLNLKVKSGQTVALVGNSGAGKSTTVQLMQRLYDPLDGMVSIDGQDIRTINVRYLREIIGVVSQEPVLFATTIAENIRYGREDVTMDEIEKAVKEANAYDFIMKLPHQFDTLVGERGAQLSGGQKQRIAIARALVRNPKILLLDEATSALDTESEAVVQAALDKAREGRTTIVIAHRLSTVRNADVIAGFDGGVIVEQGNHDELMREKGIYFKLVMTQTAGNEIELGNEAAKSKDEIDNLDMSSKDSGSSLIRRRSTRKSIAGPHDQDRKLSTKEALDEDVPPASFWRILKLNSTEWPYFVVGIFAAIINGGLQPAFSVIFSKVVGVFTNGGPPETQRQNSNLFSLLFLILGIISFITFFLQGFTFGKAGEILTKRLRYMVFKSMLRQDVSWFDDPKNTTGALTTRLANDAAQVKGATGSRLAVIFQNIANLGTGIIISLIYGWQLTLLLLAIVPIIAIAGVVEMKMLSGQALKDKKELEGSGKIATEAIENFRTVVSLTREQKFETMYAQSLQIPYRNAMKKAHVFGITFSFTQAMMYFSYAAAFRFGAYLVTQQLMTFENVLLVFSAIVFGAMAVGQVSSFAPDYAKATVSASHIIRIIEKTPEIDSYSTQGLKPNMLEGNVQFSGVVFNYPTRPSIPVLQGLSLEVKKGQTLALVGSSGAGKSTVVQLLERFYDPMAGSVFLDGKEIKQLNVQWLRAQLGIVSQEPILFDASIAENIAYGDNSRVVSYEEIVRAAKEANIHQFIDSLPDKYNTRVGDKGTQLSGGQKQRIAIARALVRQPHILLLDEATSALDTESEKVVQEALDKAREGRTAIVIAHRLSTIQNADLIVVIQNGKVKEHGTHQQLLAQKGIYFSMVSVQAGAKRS

Q: With `Cc1cc(C)c(-c2cc(NC(=O)CSc3n[nH]c(C4CC4)n3)n(-c3ccccc3)n2)cc1C` [SMU-29, 2-[(5-cyclopropyl-1H-1,2,4-triazol-3-yl)sulfanyl]-N-[2-phenyl-5-(2,4,5-trimethylphenyl)pyrazol-3-yl]acetamide] as the compound, how does the “Effect on stimulated ATPase” value ([1]; in the presence of verapamil) read?
A: The value was “significantly inhibit”.

Q: And the “Stimulated ATPase (% of DMSO)” value ([1]; in the presence of verapamil, ± standard deviation)?
A: The value was 49 ± 2 % of DMSO.

Q: What about the “Basal ATPase (% of DMSO)” value ([1]; without added transport substrate, ± standard deviation) of the same compound?
A: Its value is 95 ± 11 % of DMSO.

Q: What about the “Effect on SL-ANP binding” value ([2]; ESR data of Brewer et al. (2014)) of the same compound?
A: Its value is “not interfere with ATP binding”.

Q: What about the “Maximum ATP binding mol SL-ANP bound/mol P-gp” value ([2]; in presence of 29, taken from Brewer et al. (2014)) of the same compound?
A: The value was 1.9 ± 0.1^1 mol SL-ANP bound/mol P-gp.

Q: What about the IC50 [3] of the same compound?
A: Its IC50 is 37.9 ± 0.02 µM.

Q: And the Sensitivity to doxorubicin [4]?
A: Its Sensitivity to doxorubicin is “hyper-sensitized”.

Q: What about the “Effect on SL-ATP binding” value [5] of the same compound?
A: The value was “decreased the SL-ATP binding affinities”.

Q: And the “Chemotherapeutic sensitivity of MDR cell line (Paclitaxel or Doxorubicin)” value [6]?
A: The value was “restores chemotherapeutic sensitivity”.
